Measured values taken from patent US10494410B2, “Inhibitor Peptides of ERK-type MAP kinase” (Universite Pierre Et Marie Curie, priority 2005, dated 2019).
Ends that are not written are not given here.

Legend:
[1] = tested on: Elk-1; experiment: Serum-induced P-Elk-1 in HEK cells, immunocytochemistry; format: cell-based; conditions: peptide 10 μM for 40 minutes, serum 20 minutes
Protocol: HEK cells are placed in the presence of the peptide P2 (FIG. 4, middle panels) or P1 (FIG. 4, right panels), at the concentration of 10 μM for 40 minutes. Nontreated cells (without peptide) are used as controls (FIG. 4, left panels).
The cells are then treated for 20 minutes using fetal calf serum (serum) in order to activate the MAP kinase/ERK pathway.
The corresponding nuclei are visualized by means of the same star on the panels of the third line, marked Hoechst.

[2] = tested on: HEK293 cells; experiment: Cell penetration and intracellular localization of FITC-coupled peptide in HEK293 cells (fluorescence, Hoechst nuclei); format: cell-based; conditions: unlabeled peptide, statement in Example 1; cells not specified
Protocol: HEK293 cells are placed in the presence of the peptide F2 at various concentrations (1 mM stock solution in distilled water, then dilutions to 25, 50 and 100 μM in DMEM culture medium), for 15, 30 or 60 minutes, continuously. The cell nuclei are labeled using Hoechst dye (left panel), and the peptide F2 is visualized by means of the FITC label (middle panel). […] The labeled cell nuclei are shown on the left panels, the peptide F2 on the middle panels and the superimposition of these two labelings is represented on the right panels (panels marked fusion).
HEK293 cells are placed in the presence of the peptide F1 at various concentrations (1 mM stock solution in distilled water, then dilutions to 25, 50 and 100 μM in
DMEM culture medium) for 15, 30 or 60 minutes, continuously. The cell nuclei are labeled using Hoechst dye, and the peptide F1 is visualized by means of the FITC label.

| Sequence | induction of P-Elk-1 (phosphorylation of Elk-1) in response to serum [1] | cell penetration [2] |
| --- | --- | --- |
| GRKKRRQRRRCCTLWQFLLHLLLDSPAKLSFQFPSGSAQVHI (sequence which inhibits the interaction between Elk 1 and ERK) [Peptide P1, HIV-TAT penetrating peptide, CC cleavage site, NES of Net, FXFP docking domain of Elk-1] | not and also in the presence of serum and of the peptide P1 | penetrates into the cells |
| GRKKRRQRRRPPSPAKLSFQFPSGSAQVHI [Peptide P2] | – | penetrates into the cells |
